Experimental data as given in ChEMBL document CHEMBL4190285, “Borapetoside E, a Clerodane Diterpenoid Extracted from Tinospora crispa, Improves Hyperglycemia and Hyperlipidemia in High-Fat-Diet-Induced Type 2 Diabetes Mice” (J Nat Prod, 2017).
Active and inactive are the calls of the source. The calls are words filed in the database; no cut-off is given here.

Assays:
Mus musculus [1] = assay: Increase in oxygen consumption in HFD-induced obese C57BL/6J mouse at 40 mg/kg, ip administered twice daily for 2.5 days incubated for 12.6 hrs under dark condition followed by redosing on day 3 for 2 times; format: functional, organism-based
Mus musculus [2] = assay: Antihyperglycemic activity in high fat diet-induced obese C57BL/6J mouse assessed as reduction in blood glucose level at 40 mg/kg, ip administered as single dose measured after 36 hrs; format: functional, organism-based
Mus musculus [3] = assay: Improvement in insulin resistance in high fat diet-induced obese C57BL/6J mouse assessed as increase in phosphorylated GSK3beta expression in skeletal muscle at 40 mg/kg, ip administered twice daily for 2.5 days measured at 2 hrs post last dose by Western blot analysis; format: functional, organism-based
Mus musculus [4] = assay: Improvement in insulin resistance in high fat diet-induced obese C57BL/6J mouse assessed as reduction in fasting serum glucose level at 40 mg/kg, ip pretreated twice daily for 2.5 days followed by insulin challenge at 2 hrs post last dose measured up to 2 hrs by ITT; format: functional, organism-based
Mus musculus [5] = assay: Improvement in insulin resistance in high fat diet-induced obese C57BL/6J mouse assessed as reduction in blood glucose AUC at 40 mg/kg, ip administered as single dose pretreated for 2 hrs followed by insulin challenge measured up to 2 hrs by ITT; format: functional, organism-based
Mus musculus [6] = assay: Antihyperlipidemic activity in high fat diet-induced obese C57BL/6J mouse assessed as serum LDL-C levels at 20 mg/kg, ip administered twice daily for 2.5 days measured at 2 hrs post last dose (reference value: 2.54 +/- 0.87 mmol/L); format: functional
Mus musculus [7] = assay: Antihyperlipidemic activity in high fat diet-induced obese C57BL/6J mouse assessed as serum total cholesterol levels at 20 mg/kg, ip administered twice daily for 2.5 days measured at 2 hrs post last dose (reference value: 4.56 +/- 1.01 mmol/L); format: functional
Mus musculus [8] = assay: Antihyperlipidemic activity in high fat diet-induced obese C57BL/6J mouse assessed as serum free fatty acid levels at 20 mg/kg, ip administered twice daily for 2.5 days measured at 2 hrs post last dose (reference value: 1.41 +/- 0.3 mmol/L); format: functional
Mus musculus [9] = assay: Antihyperlipidemic activity in high fat diet-induced obese C57BL/6J mouse assessed as serum LDL-C levels at 40 mg/kg, ip administered twice daily for 2.5 days measured at 2 hrs post last dose (reference value: 2.54 +/- 0.87 mmol/L); format: functional
Mus musculus [10] = assay: Antihyperlipidemic activity in high fat diet-induced obese C57BL/6J mouse assessed as serum HDL-C levels at 40 mg/kg, ip administered twice daily for 2.5 days measured at 2 hrs post last dose (reference value: 1.82 +/- 0.58 mmol/L); format: functional
Mus musculus [11] = assay: Antihyperlipidemic activity in high fat diet-induced obese C57BL/6J mouse assessed as serum total cholesterol levels at 40 mg/kg, ip administered twice daily for 2.5 days measured at 2 hrs post last dose (reference value: 4.56 +/- 1.01 mmol/L); format: functional
Mus musculus [12] = assay: Antihyperlipidemic activity in high fat diet-induced obese C57BL/6J mouse assessed as reduction in liver triglyceride levels at 20 to 40 mg/kg, ip administered twice daily for 2.5 days measured at 2 hrs post last dose; format: functional, organism-based
Mus musculus [13] = assay: Antihyperlipidemic activity in high fat diet-induced obese C57BL/6J mouse assessed as reduction in liver free fatty acid level at 20 to 40 mg/kg, ip administered twice daily for 2.5 days measured at 2 hrs post last dose; format: functional, organism-based
Mus musculus [14] = assay: Antihyperlipidemic activity in high fat diet-induced obese C57BL/6J mouse assessed as reduction in triglyceride level in epididymis adipose tissue at 20 to 40 mg/kg, ip administered twice daily for 2.5 days measured at 2 hrs post last dose; format: functional, organism-based
Mus musculus [15] = assay: Antihyperlipidemic activity in high fat diet-induced obese C57BL/6J mouse assessed as reduction in cholesterol level in epididymis adipose tissue at 20 to 40 mg/kg, ip administered twice daily for 2.5 days measured at 2 hrs post last dose; format: functional, organism-based
Mus musculus [16] = assay: Antihyperlipidemic activity in high fat diet-induced obese C57BL/6J mouse assessed as reduction in free fatty acid level in epididymis adipose tissue at 20 to 40 mg/kg, ip administered twice daily for 2.5 days measured at 2 hrs post last dose; format: functional, organism-based
Mus musculus [17] = assay: Toxicity in HFFD-induced obese C57BL/6J mouse assessed as effect on food intake at 40 mg/kg, ip administered twice daily for 2.5 days followed by once daily dosing up to 16 days measured daily during compound dosing; format: organism-based; conditions: in vivo
Mus musculus [18] = assay: Increase in carbon dioxide production in HFD-induced obese C57BL/6J mouse at 40 mg/kg, ip administered twice daily for 2.5 days measured up to 12.6 hrs under dark condition; format: functional, organism-based
Mus musculus [19] = assay: Increase in carbon dioxide production in HFD-induced obese C57BL/6J mouse at 40 mg/kg, ip administered twice daily for 2.5 days incubated for 12.6 hrs under dark condition followed by redosing on day 3 for 2 times; format: functional, organism-based
Mus musculus [20] = assay: Effect on respiratory exchange ratios in HFD-induced obese C57BL/6J mouse at 40 mg/kg, ip administered twice daily for 2.5 days incubated for 12.6 hrs under dark condition followed by redosing on day 3 for 2 times; format: functional, organism-based
Mus musculus [21] = assay: Down regulation of SREBP2 mRNA expression in HFD-induced obese C57BL/6J mouse adipose tissue at 20 to 40 mg/kg, ip administered twice daily for 2.5 days measured at 2 hrs post last dose by RT-PCR analysis; format: functional, organism-based
Mus musculus [22] = assay: Down regulation of ACL1 mRNA expression in HFD-induced obese C57BL/6J mouse liver at 20 to 40 mg/kg, ip administered twice daily for 2.5 days measured at 2 hrs post last dose by RT-PCR analysis; format: functional, organism-based
Mus musculus [23] = assay: Down regulation of HMGCR mRNA expression in HFD-induced obese C57BL/6J mouse liver at 20 to 40 mg/kg, ip administered twice daily for 2.5 days measured at 2 hrs post last dose by RT-PCR analysis; format: functional, organism-based
Mus musculus [24] = assay: Down regulation of ABCG5 mRNA expression in HFD-induced obese C57BL/6J mouse liver at 20 to 40 mg/kg, ip administered twice daily for 2.5 days measured at 2 hrs post last dose by RT-PCR analysis; format: functional, organism-based
Mus musculus [25] = assay: Down regulation of pre-SREBP1 expression in HFD-induced obese C57BL/6J mouse liver at 20 to 40 mg/kg, ip administered twice daily for 2.5 days measured at 2 hrs post last dose by Western blot analysis; format: functional, organism-based
Mus musculus [26] = assay: Down regulation of n-SREBP1 expression in HFD-induced obese C57BL/6J mouse liver at 20 to 40 mg/kg, ip administered twice daily for 2.5 days measured at 2 hrs post last dose by Western blot analysis; format: functional, organism-based
Mus musculus [27] = assay: Improvement in serum ALT level in HFFD-induced obese C57BL/6J mouse assessed as serum ALT level at 40 mg/kg, ip administered twice daily for 2.5 days followed by once daily dosing up to 16 days measured at 2 hrs post last dose (reference value: 20.49 +/- 4.5 IU/L); format: functional
Mus musculus [28] = assay: Toxicity in HFFD-induced obese C57BL/6J mouse assessed as serum creatinine level at 40 mg/kg, ip administered twice daily for 2.5 days followed by once daily dosing up to 16 days measured at 2 hrs post last dose (reference value: 100.67 +/- 17.2 umol/L); format: organism-based; conditions: in vivo

COC(=O)C1=CCC[C@H]2[C@](C)(C[C@@H](O[C@@H]3O[C@H](CO)[C@@H](O)[C@H](O)[C@H]3O)c3ccoc3)[C@H]3C[C@H](OC3=O)[C@@]12C
Activity (Mus musculus [1]): Active | Activity (Mus musculus [2]): Active | Activity (Mus musculus [3]): Active | Activity (Mus musculus [4]): Active | Activity (Mus musculus [5]): Active | Activity (Mus musculus [6]): 2.21 mmol/L | Activity (Mus musculus [7]): 3.8 mmol/L | Activity (Mus musculus [8]): 1.39 mmol/L | Activity (Mus musculus [9]): 1.65 mmol/L | Activity (Mus musculus [10]): 1.31 mmol/L | Activity (Mus musculus [11]): 2.24 mmol/L | Activity (Mus musculus [12]): Active | Activity (Mus musculus [13]): Active | Activity (Mus musculus [14]): Active | Activity (Mus musculus [15]): Active | Activity (Mus musculus [16]): Active | Activity (Mus musculus [17]): Non-Toxic | Activity (Mus musculus [18]): Active | Activity (Mus musculus [19]): Active | Activity (Mus musculus [20]): inactive | Activity (Mus musculus [21]): Active | Activity (Mus musculus [22]): Active | Activity (Mus musculus [23]): Active | Activity (Mus musculus [24]): Active | Activity (Mus musculus [25]): Active | Activity (Mus musculus [26]): Active | Activity (Mus musculus [27]): 15.75 IU/L | Activity (Mus musculus [28]): 86.37 µmol/L
